The experiment concerns Boophilus microplus. Kind of experiment: Boophilus microplus test (injection). Format: in vivo. The following applies: application rate 20 μg/animal, adult engorged females, after 7 days. The method, then:
Solvent: dimethyl sulfoxide
To produce a suitable preparation of active compound, 10 mg of active compound are dissolved in 0.5 ml solvent, and the concentrate is diluted with solvent to the desired concentration. Five adult engorged female ticks (Boophilus microplus) are injected with compound solution into the abdomen. Ticks are transferred into replica plates and incubated in a climate chamber for a period of time. Egg deposition of fertile eggs is monitored. After 7 days mortality in % is determined 100% means that all eggs are infertile; 0% means that all eggs are fertile.
As to `CC(C)(C)OC(=O)NCc1ccc(N2CCC(c3cc(Cl)cc(Cl)c3)(C(F)(F)F)C2)cc1C(F)(F)F` (stereo not drawn) [1-270], the “activity (100% means that all eggs are infertile)” value is 100%.
For the molecule `CC(C)C(=O)NCc1ccc(N2CCC(c3cc(Cl)c(Cl)c(Cl)c3)(C(F)(F)F)C2)cc1C(F)(F)F` (stereo not drawn) [1-329], the “activity (100% means that all eggs are infertile)” value stood at 100%.
Consider `CNC(=O)N(C)Cc1ccc(N2CCC(c3cc(Cl)cc(Cl)c3)(C(F)(F)F)C2)cc1C(F)(F)F` (stereo not drawn) [1-258], for which the “activity (100% means that all eggs are infertile)” value turned out to be 100%.
`CC(=O)CC(=O)NCc1ccc(N2CCC(c3cc(C(F)(F)F)cc(C(F)(F)F)c3)(C(F)(F)F)C2)cc1C(F)(F)F` (stereo not drawn) [1-963]: the “activity (100% means that all eggs are infertile)” value is given as 100%.
Consider `O=C(NCc1ccc(N2CCC(c3cc(Cl)cc(C(F)(F)F)c3)(C(F)(F)F)C2)cc1C(F)(F)F)C1CC1` (stereo not drawn) [1-357], for which the “activity (100% means that all eggs are infertile)” value was 100%.
The figure for `CC=CC(=O)NCc1ccc(N2CCC(c3cc(Cl)cc(Cl)c3)(C(F)(F)F)C2)cc1Cl` (stereo not drawn) [1-30] is 100%; for `C=CCSCC(=O)NCc1ccc(N2CCC(c3cc(Cl)c(Cl)c(Cl)c3)(C(F)(F)F)C2)cc1C(F)(F)F` (stereo not drawn) [1-732] it is 100%; for `O=C(CC(F)(F)F)NCc1ccc(N2CCC(c3cc(C(F)(F)F)cc(C(F)(F)F)c3)(C(F)(F)F)C2)cc1C(F)(F)F` (stereo not drawn) [1-296] it is 100%.
In the case of `N#Cc1ccc(N2CCC(c3cc(Cl)c(Cl)c(Cl)c3)(C(F)(F)F)C2)cc1Cl` (stereo not drawn) [7-13], the “activity (100% means that all eggs are infertile)” value turned out to be 100%.
Turning to `CN(Cc1ccc(N2CCC(c3cc(Cl)cc(Cl)c3)(C(F)(F)F)C2)cc1C(F)(F)F)C(=O)NC1CC1` (stereo not drawn) [1-260], the “activity (100% means that all eggs are infertile)” value came to 100%.
For `O=C(NCc1ccc(N2CCC(c3cc(Cl)cc(Cl)c3)(C(F)(F)F)C2)cc1C(F)(F)F)C1CCC1` (stereo not drawn) [1-150], the “activity (100% means that all eggs are infertile)” value was 100%.
For the molecule `C=CCC(=O)NCc1ccc(N2CCC(c3cc(Cl)cc(Cl)c3)(C(F)(F)F)C2)cc1C(F)(F)F` (stereo not drawn) [1-180], the “activity (100% means that all eggs are infertile)” value is 100%.
The figure for `O=C(NCc1ccc(N2CCC(c3cc(C(F)(F)F)cc(C(F)(F)F)c3)(C(F)(F)F)C2)cc1Cl)C1CC1` (stereo not drawn) [1-308] is 100%; for `O=C(CC1CC1)NCc1ccc(N2CCC(c3cc(Cl)cc(Cl)c3)(C(F)(F)F)C2)cc1Cl` (stereo not drawn) [1-12] it is 100%.
As to `CCC(=O)NCc1cnc(N2CCC(c3cc(C(F)(F)F)cc(C(F)(F)F)c3)(C(F)(F)F)C2)nc1C(F)(F)F` (stereo not drawn) [3-148], the “activity (100% means that all eggs are infertile)” value amounted to 100%.
Take `O=C(NCc1ccc(N2CCC(c3cc(Cl)cc(Cl)c3)(C(F)(F)F)C2)cc1C(F)(F)F)NC1CCC1` (stereo not drawn) [1-227]: the “activity (100% means that all eggs are infertile)” value came to 100%.
With `CCC(=O)NCc1ccc(N2CCC(c3cc(Cl)cc(Cl)c3)(C(F)(F)F)C2)cc1Br` (stereo not drawn) [1-285] the figure was 100%; with `O=C(CC1CC1)NCc1ccc(N2CCC(c3cc(Cl)cc(Cl)c3)(C(F)(F)F)C2)cc1C(F)(F)F` (stereo not drawn) [1-155], 100%.
For `CCCNC(=O)NCc1ccc(N2CCC(c3cc(Cl)cc(Cl)c3)(C(F)(F)F)C2)cc1C(F)(F)F` (stereo not drawn) [1-222], the “activity (100% means that all eggs are infertile)” value is 100%.
As for `O=C(NCc1ccc(N2CCC(c3cc(Cl)cc(Cl)c3)(C(F)(F)F)C2)cc1Cl)C1CCC1` (stereo not drawn) [1-8], the “activity (100% means that all eggs are infertile)” value stood at 100%.
For `O=C(CC(F)(F)F)NCc1ccc(N2CCC(c3cc(Cl)cc(Cl)c3)(C(F)(F)F)C2)cc1Cl` (stereo not drawn) [1-19], the “activity (100% means that all eggs are infertile)” value is 100%.
Consider `O=C(NCc1ccc(N2CCC(c3cc(Cl)cc(Cl)c3)(C(F)(F)F)C2)cc1Cl)C(F)F` (stereo not drawn) [1-21], for which the “activity (100% means that all eggs are infertile)” value is on record as 100%.
Regarding `O=C(NCc1ccccn1)c1sc(N2CCC(c3cc(Cl)c(Cl)c(Cl)c3)(C(F)(F)F)C2)nc1C(F)(F)F` (stereo not drawn) [4-22], the “activity (100% means that all eggs are infertile)” value was found to be 100%.
With `CC(C)(C)OC(=O)NC1CCc2cc(N3CCC(c4cc(Cl)c(Cl)c(Cl)c4)(C(F)(F)F)C3)ccc21` (stereo not drawn) [6-802], the “activity (100% means that all eggs are infertile)” value was 100%.

Source of the values: patent publication US9266830B2, “Pesticidal arylpyrrolidines” (Bayer Intellectual Property GmbH, priority 2007, dated 2016).
